Source: article PMC11375794, “Discovery of new Hsp90–Cdc37 protein–protein interaction inhibitors: in silico screening and optimization of anticancer activity” (RSC Advances, 2024)

How the values were obtained:
[1] = test system: MCF-7 breast cancer cell line; test: MTS cell viability (antiproliferative) assay in MCF-7; assay type: cell-based; details: Homo sapiens, MCF7, 72 h, MTS assay, 72 hours, mean ± SD
full-length Hsp90β = target: T1, full-length Hsp90β (Homo sapiens, UniProt P08238); test: Microscale thermophoresis (MST) binding to Hsp90β; details: full-length Hsp90β, absence of Cdc37
T1 construct: For the protein expression of full-length Hsp90β, we received plasmids as a kind gift; made in house; host or cells: Escherichia coli strain Rosetta
T1 sequence (P08238 whole entry): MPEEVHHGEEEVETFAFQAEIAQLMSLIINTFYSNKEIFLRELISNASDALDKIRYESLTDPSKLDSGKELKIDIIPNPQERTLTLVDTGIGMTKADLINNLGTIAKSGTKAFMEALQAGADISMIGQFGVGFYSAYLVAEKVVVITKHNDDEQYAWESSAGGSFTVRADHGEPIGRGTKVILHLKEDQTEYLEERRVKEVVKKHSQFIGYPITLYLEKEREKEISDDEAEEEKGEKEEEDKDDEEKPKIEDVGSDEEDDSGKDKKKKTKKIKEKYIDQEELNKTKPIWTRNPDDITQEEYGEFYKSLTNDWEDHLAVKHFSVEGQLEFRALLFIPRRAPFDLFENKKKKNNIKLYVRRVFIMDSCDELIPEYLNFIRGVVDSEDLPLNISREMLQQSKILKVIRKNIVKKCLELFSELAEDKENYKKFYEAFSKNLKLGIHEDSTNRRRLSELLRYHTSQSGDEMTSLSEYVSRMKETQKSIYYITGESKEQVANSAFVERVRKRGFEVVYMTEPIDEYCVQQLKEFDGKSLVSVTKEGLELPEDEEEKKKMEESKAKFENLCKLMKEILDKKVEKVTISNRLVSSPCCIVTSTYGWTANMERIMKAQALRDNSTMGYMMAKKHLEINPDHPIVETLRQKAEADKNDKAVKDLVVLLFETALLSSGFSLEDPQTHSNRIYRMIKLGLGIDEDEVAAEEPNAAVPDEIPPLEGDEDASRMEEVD
Method: For the protein expression of full-length Hsp90β, we received plasmids as a kind gift from Dr Asta Zubriené at the Institute of Biotechnology, Vilnius University, Lithuania. Hsp90β, tagged with N-terminal 6×His-tag, was expressed in Escherichia coli strain Rosetta. The cells were cultured in LB media supplemented with kanamycin (50 μg mL^−1) and chloramphenicol (34 μg mL^−1) at 37 °C, and protein expression was initiated with 0.5 mM isopropyl β-D-1-thiogalactopyranoside (IPTG) when the OD600 reached 0.8. Following induction, the cells were incubated for 16 hours at 18 °C before being harvested by centrifugation. The cells were resuspended in a lysis buffer containing 40 mM potassium phosphate pH 8.0, 400 mM KCl, 10 mM imidazole, and protease inhibitors (Sigma), and then lysed by sonication. After centrifugation, the proteins were initially purified using a Ni^2+-affinity HisTrap column (GE Healthcare). Impurities were washed away with lysis buffer containing 20–40 mM imidazole, and Hsp90β was subsequently eluted with lysis buffer containing 300 mM imidazole. The purification process continued with size exclusion chromatography (SEC) using a Superdex-200 (16/600) column (GE Healthcare) and a running buffer of 50 mM Tris pH 7.5 at room temperature, 300 mM KCl. The purity of the fractions was confirmed by SDS-PAGE, and they were then concentrated. For the NMR experiments, Hsp90β was dialyzed against NMR buffer (50 mM potassium phosphate pD 7.5, 100 mM KCl, 2 mM DTT (98%, D10) in D2O) and subsequently frozen in liquid nitrogen.
The full-length Hsp90β was labeled using the Monolith His-Tag Labeling Kit RED-tris-NTA following the manufacturer's instructions (NanoTemper Technologies GmbH, Munich, Germany). The proteins were first diluted to a concentration of 8 nM in assay buffer (50 mM Tris–HCl, pH 7.4, containing 150 mM NaCl, 5% ethanol, and 10 mM MgCl2). To determine the Kd values, the proteins were mixed with the test compounds in a 1 : 1 ratio as stated in the manufacturers protocol. The final concentration of Hsp90β was 4 nM, with compounds added in the following ranges: 1000 μM to 5.86 μM for 8c; 312.5 μM to 0.15 μM for 13g and 125 μM to 3.91 μM for 1. Two independent Kd determinations were performed for compounds 8c and 13g. […] Next, Cdc37 (AR09008PUN, OriGene Technologies, Inc., Rockville, MD, USA) was acquired for the purpose of PPI inhibition evaluation between full-length Hsp90β and Cdc37. […] In all experiments the compounds were incubated with the proteins for 15 minutes in the dark at room temperature. The mixtures were then loaded into Monolith NT.115 Premium Capillaries (NanoTemper Technologies GmbH, Munich, Germany). Thermophoresis was induced at 1475 ± 15 nm and measured using a Monolith NT.115 pico instrument (NanoTemper Technologies GmbH, Munich, Germany). Measurements were conducted at ambient temperature (24–25 °C), with excitation power set to 20% and MST power set to 40%, and a laser on time of 5 seconds. To calculate the Kd values, the average fluorescence responses for each concentration were plotted against the logarithm of compound concentrate on using GraphPad Prism software (GraphPad Software, Inc., La Jolla, CA).

SK-N-MC cells = test: Apoptosis assay, annexin V–PE/SytoxBlue staining, flow cytometry; assay type: cell-based
Method: Apoptosis of SK-N-MC cells was evaluated by detecting phosphatidylserines using R-phycoerythrin–annexin V conjugate (R-PE annexin V; Invitrogen, Carlsbad, CA, USA) and nucleic acids in dead cells using SytoxBlue Dead Cell Stain (Invitrogen, Carlsbad, CA, USA), according to the manufacturer's instructions. Briefly, 2.5 × 10^5 SK-N-MC cells were seeded in six-well plates. After 24 hours, cells were washed with PBS and treated with 8c and 13g in 10 and 20 μM concentrations for 24 and 48 hours. The medium with detached cells was then collected, and attached cells were harvested and combined with the detached cells. Following two washing steps with cold PBS, cells were resuspended in 100 μL annexin-binding buffer (Invitrogen, Carlsbad, CA, USA) containing 2.5 μL annexin V–R-PE solution and 750 nM SytoxBlue, and incubated in the dark for 15 minutes at room temperature. Before measurement, 200 μL of annexin-binding buffer was added. A minimum of 10 000 events were collected using a flow cytometer (Attune NxT; Invitrogen, Carlsbad, CA, USA). Annexin V (ANV)-/SYTOX Blue (SB)-indicates viable cells, ANV+/SB− indicates early apoptotic cells, ANV+/SB+ indicates late apoptotic cells, and ANV−/SB+ indicates necrotic cells.

IC50 [1] [µM]	Kd (full-length Hsp90β) [µM]	SMILES	induction of apoptosis (qualitative) (SK-N-MC cells; 10 μM and 20 μM, 24 and 48 hours)	proportion of apoptotic cells (SK-N-MC cells; 20 μM, 24 hours) [%]	proportion of apoptotic cells (SK-N-MC cells; 20 μM, 48 hours) [%]	proportion of apoptotic cells (SK-N-MC cells; 10 μM, 24 hours) [%]	proportion of apoptotic cells (SK-N-MC cells; 10 μM, 48 hours) [%]
20 ± 1.2	70.8	CN(CCOc1ccccc1)C(=O)c1csc(Nc2cc(N3CCNCC3)ncn2)n1 [Compound 8c, N-Methyl-N-(2-phenoxyethyl)-2-((6-(piperazin-1-yl)pyrimidin-4-yl)amino)thiazole-4-carboxamide]	significantly induced apoptosis	87.5	87.7	–	–
19.3 ± 2	73.3	O=C(NCCOc1ccccc1)c1ccc(Nc2cc(N3CCNCC3)ncn2)cc1 [Compound 13g, N-(2-Phenoxyethyl)-4-((6-(piperazin-1-yl)pyrimidin-4-yl)amino)benzamide]	–	42.8	56.8	27	11.4
